In patent publication US20240173314A1, “TREATMENT OF SICKLE CELL ANAEMIA” (ZYDUS LIFESCIENCES LIMITED, priority 2021, published 2024):

Legend:
animal model of anaemia = animal model of anaemia (Jain et al., 2019; Joharapurkar et al., 2018); cited from earlier work
ischemia condition = conditions: cited from earlier work
[1] = test system: erythroid progenitor cells in bone marrow of anemic rats; assay: Erythroid progenitor cells in bone marrow of cisplatin/turpentine oil anemic rats; type: in vivo; conditions: 15 mg/kg, PO, alternate day, two weeks
Description: The anaemia was induced by cisplatin (5 mg/kg, IP, single dose) and turpentine oil (5 mL/kg, SC, twice a week) administration for four weeks. The compound of formula (Ia) (15 mg/kg, PO, alternate day) treatment was initiated after two weeks of cisplatin/turpentine oil administration. After two weeks of compound of formula (Ia) treatment, animals were euthanized and bone marrow was isolated. Bone marrow smear was prepared and stain with May-Grunwald stain and Giemsa stain. The ratio of erythroid progenitor cell: total cells were expressed as percentage.

isolated RBCs [2] = assay: TBARS (malondialdehyde, thiobarbituric acid method) in RBC lysate after PHZ; type: cell-based, C57BL/6J; conditions: PHZ 10 μM
Description: (§1) The RBC was isolated from healthy male C57BL/6J (6-8 weeks old) into a heparinized tube. The RBC pellet was isolated by centrifugation. The RBC pellet was washed three time with glucose supplemented phosphate buffered saline (PBS). The final RBC pellet was diluted 1:4 with glucose supplemented PBS. The RBC suspension was incubated with compound of formula (Ia) at 0.05, 0.5 and 5 μM concentration for 30 min at 37° C. Then the phenylhydrazine (10 μM) was added to all groups and incubated for further 30 min at 37° C. After that 2,7-Dichlorofluorescin-diacetate (DCFDA, 400 μM) was added to the RBC suspension and incubated for 30 min at 37° C. After incubation, the RBC suspension was washed two times with glucose-PBS, and RBC were lysed with 200 μL of ice-cold 0.1% Triton X100 and then incubated for 30 min in darkness at room temperature. After 30 min incubation, the fluorescence of all samples was read (excitation wavelength: 485 nm and emission wavelength: 538 nm). The concentration of 2,7-Dichlorofluorescin (DCF) was calculated from the DCF standard curve. For thiobarbituric acid reactive substances (TBARS) measurement, RBC lysate was used and malondialdehyde was measured using thiobarbituric acid method (Patel V et al., 2018).

isolated RBCs [3] = assay: PHZ-induced reactive oxygen species (DCFDA/DCF) in isolated RBCs; type: cell-based, C57BL/6J; conditions: PHZ 10 μM, RBC suspension
Description: as §1

[4] = test system: PHZ-induced haemolytic anaemia; assay: Phenylhydrazine (PHZ)-induced haemolytic anaemia in mice; type: in vivo, mice (male C57BL/6J); conditions: 15 mg/kg, PO, daily day -1 to day 5; PHZ-treated mice
Description: Male C57BL/6J (6-8 weeks old) were used in the study. Mice were treated with phenylhydrazine (PHZ) on day 0, day 1 and day 3. The PHZ was given by intraperitoneally route at 40 mg/kg on day 0, and 20 mg/kg on day 1 and 3. Vehicle control or compound of formula (Ia) (15 mg/kg, PO) was given daily from day −1 to day 5. At the end of treatment period, whole blood samples were processed for haemoglobin, RBC and haematocrit measurement. The serum samples were analyzed for total iron content. The effect on oxidative and inflammatory markers will be analyzed.

[5] = ischemia condition (Joharapurkar et al., 2021)
[6] = oxidative stress (Joharapurkar et al., 2021)

Structure (SMILES)	HIF stabilization (animal model of anaemia)	erythropoiesis (animal model of anaemia)	IL-1β levels (ischemia condition; [5])	IL-6 levels (ischemia condition; [5])	malondialdehyde (MDA) (ischemia condition; [6])	superoxide dismutase (SOD) (ischemia condition; [6])	increase in % erythroid progenitor cells compared with vehicle control [1] [fold]	decrease of TBARS levels compared with vehicle control (isolated RBCs [2]; 0.05 μM) [%]	decrease of TBARS levels compared with vehicle control (isolated RBCs [2]; 0.5 μM) [%]	decrease of TBARS levels compared with vehicle control (isolated RBCs [2]; 5 μM) [%]	decrease of ROS (DCF concentration) compared with vehicle control (isolated RBCs [3]; 0.05 μM) [%]	decrease of ROS (DCF concentration) compared with vehicle control (isolated RBCs [3]; 0.5 μM) [%]	decrease of ROS (DCF concentration) compared with vehicle control (isolated RBCs [3]; 5 μM) [%]	decrease in serum iron levels [4] [%]	increase in HCT level compared with PHZ control [4] [%]	increase in RBC level compared with PHZ control [4] [%]	increase in hemoglobin level compared with PHZ control [4] [%]
O=C(O)CNC(=O)c1c(O)c2ccccc2n(OCC2CC2)c1=O [Desidustat]	stabilizes HIF	induces erythropoiesis	reduced	reduced	decreases	decreases											
O=C(O)CNC(=O)c1c(O)c2ccccc2n(OCC2CC2)c1=O [compound of formula (Ia)]							2.2±0.5	5.5±4.0	21.8±4.0	27.3±4.0	9.6±8.9	25.5±3.8	35.1±1.7	26.0±7.6	37.7±5.7	44.2±10.4	36.4±6.2
